Columns and labels:
[1] = tested on: mouse BALB/3T3 embryonic fibroblasts; experiment: MTT cytotoxicity assay, BALB/3T3; type: cell-based; details: 72 h, normal cells
Protocol: (§1) All of the synthesized compounds (7a–f) were studied to test their anticancer activity toward the estrogen receptor-positive (ER+) MCF-7 and the triple-negative MDA-MB-231 breast cancer cells (ER-, PR- and HER-2/Neu not overexpressed) and A2058 melanoma cells. Cells were incubated for 72 h with different concentrations of the compounds, and then the viability was checked by the MTT assay. […] Moreover, we checked the cytotoxicity of all of the synthesized compounds against the human MCF-10A non-malignant breast epithelial cells and mouse BALB/3T3 embryonic fibroblasts, in order to evaluate their selectivity on cancer cells.
(§2) The used cell lines (breast cancer cell lines MCF-7 and MDA-MB-231, melanoma cell line A2058 and human mammary epithelial cell line MCF-10A) were obtained from American Type Culture Collection (ATCC, Manassas, VA, USA) and cultured as already reported. The mouse BALB/3T3 embryonic fibroblasts were also purchased from American Type Culture Collection (ATCC, Manassas, VA, USA) and cultured in DMEM high glucose supplemented with 10% bovine calf serum (BCS) and 100 U mL^−1 penicillin/streptomycin.
(§3) MTT assay (Sigma Aldrich (St. Louis, MO, USA)) was performed for evaluating the in vitro anticancer activities of the compounds, as previously indicated. Different concentrations (0.1, 1, 10, 25, 50, and 100 μM) of the compounds were employed, with a 72 h endpoint. IC50 values were obtained from the percent (%) of control using GraphPad Prism 9 (GraphPad Software, La Jolla, CA, USA).

[2] = tested on: MCF-7 breast cancer cells; experiment: MTT cell viability assay, MCF-7; type: cell-based, human; details: Homo sapiens, MCF7; MTT, 72 h
Protocol: as §1, §2, §3

[3] = tested on: MDA-MB-231 breast cancer cells; experiment: MTT cell viability assay, MDA-MB-231; type: cell-based; details: Homo sapiens, 72 h
Protocol: as §1, §2, §3

[4] = tested on: human MCF-10A non-malignant breast epithelial cells; experiment: MTT cytotoxicity assay, MCF-10A; type: cell-based; details: 72 h, normal cells
Protocol: as §1, §2, §3

A2058 melanoma cells = experiment: MTT cell viability assay, A2058; type: cell-based; details: Homo sapiens, 72 h
Protocol: as §1, §2, §3

hTopo I = target: T1, hTopo I (Homo sapiens, UniProt P11387); experiment: hTopo I relaxation assay; type: biochemical; design: key to Topoisomerase Inhibition hTopo I: (+) inhibition; (−) no inhibition; (+/−) partial inhibition; details: for hTopo I activity inhibition (in words): supercoiled pHOT1
T1 construct: purchased TopoGEN, Port Orange, FL, USA
T1 sequence (P11387 1-765): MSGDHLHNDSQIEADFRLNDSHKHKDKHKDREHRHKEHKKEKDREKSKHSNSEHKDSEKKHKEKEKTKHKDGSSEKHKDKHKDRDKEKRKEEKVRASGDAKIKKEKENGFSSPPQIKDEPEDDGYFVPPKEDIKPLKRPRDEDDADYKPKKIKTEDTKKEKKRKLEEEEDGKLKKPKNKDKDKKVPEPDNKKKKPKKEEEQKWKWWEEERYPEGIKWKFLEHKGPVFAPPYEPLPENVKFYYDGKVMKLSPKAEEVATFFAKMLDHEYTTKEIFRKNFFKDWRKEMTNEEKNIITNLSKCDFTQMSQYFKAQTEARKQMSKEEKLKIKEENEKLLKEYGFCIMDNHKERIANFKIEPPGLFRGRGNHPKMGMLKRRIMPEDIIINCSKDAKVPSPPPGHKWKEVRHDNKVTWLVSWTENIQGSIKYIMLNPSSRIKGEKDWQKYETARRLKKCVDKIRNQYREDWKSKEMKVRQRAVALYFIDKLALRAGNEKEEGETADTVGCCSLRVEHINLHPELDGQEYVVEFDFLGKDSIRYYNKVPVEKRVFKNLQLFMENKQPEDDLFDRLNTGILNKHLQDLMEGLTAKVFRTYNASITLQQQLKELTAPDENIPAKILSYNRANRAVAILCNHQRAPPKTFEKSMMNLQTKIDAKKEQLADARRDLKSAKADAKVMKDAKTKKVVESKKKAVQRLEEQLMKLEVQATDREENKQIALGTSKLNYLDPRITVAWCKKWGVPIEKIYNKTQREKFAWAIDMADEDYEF
Excerpt: Thiazoles and their derivatives are extensively recognized as chemical nuclei of great interest for producing molecules with multiple biological properties. In particular, several compounds bearing these heterocycles were studied for their capability to interfere with DNA topoisomerases (Topos), ubiquitous enzymes essential in several key cellular processes. In recent years, these enzymes have become popular targets in cancer therapy; indeed, the topoisomerase inhibitors can induce damage to genome integrity. Consequently, the inhibition of topoisomerases leads to cell death by apoptosis and, thus, is fatal. Thus, we carried out two specific tests in vitro for both of the Topos, namely the hTopo I relaxation and the hTopo II decatenation assays. For the hTopo I relaxation assay, we exposed the enzyme to the most interesting compounds, 7b–7e, at the final concentration of 10 µM for 1 h at 37 °C, using as substrate the supercoiled pHOT1 (see Section 4 Materials and Methods for more details). […] Contrarily, in the CTRL lane, where the hTopo I was exposed to only vehicle (DMSO), several bands due to pHOT1 DNA cleavage were present (Figure 3, lane C). […] In Figure 3, panel B, the hTopo I inhibition results using ellipticine, as reference molecule are shown. […] An electrophoretic mobility shift of the pHOT1 DNA was also noticeable, due to the intercalating properties of ellipticine.
(§4) hTopo I relaxation assays were performed by incubating the substrate (supercoiled pHOT1) with the recombinant hTopo I (TopoGEN, Port Orange, FL, USA) and compounds, as indicated in the supplier protocol (TopoGEN, Port Orange, FL, USA), with some revisions. hTopo II decatenation assays were conducted by incubating the kinetoplast DNA substrate (kDNA) with the hTopo II (TopoGEN, Port Orange, FL) and studied compounds, as indicated in the supplier procedures (TopoGEN, Port Orange, FL, USA), with some changes as in [80].
Figure 3 hTopo I relaxation assay. Plasmid pHOT1, used as substrate, was incubated with hTopo I with or without the studied compounds 7b–7e (10 µM concentration), panel (A), and with or without ellipticine (10 and 50 µM concentration), panel (B). Lane A, relaxed DNA marker; lane B, pHOT1 supercoiled DNA, lane C, CTRL (DMSO), lane D–G, compounds 7b–7e 10 µM, respectively. Lane 1, pHOT1 supercoiled DNA; lane 2, CTRL (DMSO), lanes 3–4, ellipticine 10 and 50 µM, respectively.

hTopo II = target: T2, hTopo II (Homo sapiens, UniProt P11388); experiment: hTopo II decatenation assay; type: biochemical; design: key to Topoisomerase Inhibition hTopo II: (+) inhibition; (−) no inhibition; (+/−) partial inhibition; details: for hTopo II activity inhibition (in words): kDNA
T2 construct: purchased TopoGEN, Port Orange, FL
T2 sequence (P11388 whole entry): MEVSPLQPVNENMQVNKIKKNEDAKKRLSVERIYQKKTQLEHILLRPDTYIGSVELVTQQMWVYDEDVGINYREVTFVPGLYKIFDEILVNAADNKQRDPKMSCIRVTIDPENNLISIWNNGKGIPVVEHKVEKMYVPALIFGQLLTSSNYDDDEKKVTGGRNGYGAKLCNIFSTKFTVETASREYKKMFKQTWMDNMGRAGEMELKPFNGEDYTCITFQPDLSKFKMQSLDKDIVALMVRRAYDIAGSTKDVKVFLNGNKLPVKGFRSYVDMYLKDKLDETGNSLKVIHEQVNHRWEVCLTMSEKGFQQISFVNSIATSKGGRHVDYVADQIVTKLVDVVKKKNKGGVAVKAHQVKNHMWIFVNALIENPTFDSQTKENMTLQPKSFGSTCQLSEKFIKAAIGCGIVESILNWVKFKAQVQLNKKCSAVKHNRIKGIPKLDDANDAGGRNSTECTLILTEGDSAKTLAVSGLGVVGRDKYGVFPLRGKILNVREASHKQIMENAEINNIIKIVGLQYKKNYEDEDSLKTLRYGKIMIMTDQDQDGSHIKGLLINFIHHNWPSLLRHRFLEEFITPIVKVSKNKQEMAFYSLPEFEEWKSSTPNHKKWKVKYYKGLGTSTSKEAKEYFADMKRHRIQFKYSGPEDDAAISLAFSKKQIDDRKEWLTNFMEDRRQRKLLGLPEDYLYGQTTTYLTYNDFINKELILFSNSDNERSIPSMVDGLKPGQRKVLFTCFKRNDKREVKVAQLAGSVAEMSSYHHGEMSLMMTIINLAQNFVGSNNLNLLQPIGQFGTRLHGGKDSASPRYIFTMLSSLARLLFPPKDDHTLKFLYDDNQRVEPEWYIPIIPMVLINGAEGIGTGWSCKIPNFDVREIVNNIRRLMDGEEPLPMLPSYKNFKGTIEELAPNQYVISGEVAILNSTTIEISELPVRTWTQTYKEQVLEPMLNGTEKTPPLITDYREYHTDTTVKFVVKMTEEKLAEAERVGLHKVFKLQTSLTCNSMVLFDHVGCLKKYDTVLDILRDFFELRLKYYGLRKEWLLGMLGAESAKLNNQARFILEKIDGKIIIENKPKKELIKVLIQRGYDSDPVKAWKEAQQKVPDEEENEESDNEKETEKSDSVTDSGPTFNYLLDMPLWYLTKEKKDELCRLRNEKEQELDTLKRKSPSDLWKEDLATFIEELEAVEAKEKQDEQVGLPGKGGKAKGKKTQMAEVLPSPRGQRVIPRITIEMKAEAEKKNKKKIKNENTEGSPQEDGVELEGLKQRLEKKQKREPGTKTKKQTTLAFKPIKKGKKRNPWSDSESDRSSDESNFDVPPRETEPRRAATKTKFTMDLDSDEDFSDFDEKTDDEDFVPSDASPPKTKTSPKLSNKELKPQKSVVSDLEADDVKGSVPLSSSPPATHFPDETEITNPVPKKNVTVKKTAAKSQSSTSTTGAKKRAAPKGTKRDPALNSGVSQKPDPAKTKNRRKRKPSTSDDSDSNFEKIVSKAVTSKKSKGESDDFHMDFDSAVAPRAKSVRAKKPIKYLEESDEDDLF
Protocol: The linear kDNA (Figure 4a,b, lanes A), decatenated kDNA (Figure 4a,b, lanes B) and the catenated circles of kDNA (Figure 4a,b, lanes C) were used as markers. A parallel experiment was performed using ellipticine as reference molecule.
as §4
Figure 4 hTopo II decatenation assay. […] The same experiment was performed using ellipticine (c). Lane 1, decatenated kDNA marker; lane 2, linear kDNA marker; lane 3, CTRL (DMSO), lanes 4–5, ellipticine 10 and 50 µM, respectively.

Compound | IC50 [2] | melting point | IC50 [3] | IC50 (A2058 melanoma cells) | Topoisomerase Inhibition hTopo I (hTopo I; 10 µM) | Topoisomerase Inhibition hTopo II (hTopo II; 10 µM) | Topoisomerase Inhibition hTopo II (hTopo II; 50 µM) | IC50 [1] | IC50 [4] | hTopo I activity inhibition (in words) (hTopo I; 10 µM, 1 h, 37 °C) | hTopo II activity inhibition (in words) (hTopo II; 50 µM) | Topoisomerase Inhibition hTopo I (hTopo I; 50 µM) | hTopo I activity inhibition (in words) (hTopo I; 50 µM)
COc1cc(/C=C2\SC(=O)N(CC(=O)Nc3nc(-c4ccccc4)cs3)C2=O)cc(OC)c1OC [compound 7b, (Z)-2-(5-(3,4,5-Trimethoxybenzylidene)thiazolidin-2,4-dion-3-yl)-N-(4-phenylthiazol-2-yl)acetamide] | 8.5 ± 1.2 µM |  | 17.9 ± 1.1 µM | 3.5 ± 1.1 µM | − | − | − | > 100 µM | > 100 µM | not able to inhibit the relaxation activity | unable to inhibit the hTopo II activity |  | 
COc1cc(/C=C2\SC(=O)N(CC(=O)Nc3nc(-c4ccc(Cl)cc4)cs3)C2=O)cc(OC)c1OC [compound 7d, (Z)-2-(5-(3,4,5-Trimethoxybenzylidene)thiazolidin-2,4-dion-3-yl)-N-(4-(4-chlorophenyl)thiazol-2-yl)acetamide] | 34.1 ± 0.7 µM |  | 33.4 ± 1 µM | 6.4 ± 0.9 µM | − | − | + | 36.1 ± 1 µM | > 100 µM | not able to inhibit the relaxation activity |  |  | 
COc1cc(/C=C2\SC(=O)N(CC(=O)Nc3nc4ccccc4s3)C2=O)cc(OC)c1OC [compound 7f, (Z)-2-(5-(3,4,5-Trimethoxybenzylidene)thiazolidin-2,4-dion-3-yl)-N-(benzo[d]thiazol-2-yl)acetamide] | 17.4 ± 1.1 µM |  | 50.5 ± 0.8 µM | 24.6 ± 1.1 µM | + | − | + | > 100 µM | > 100 µM |  |  |  | 
Cc1c2ccncc2c(C)c2c1[nH]c1ccccc12 [ellipticine, reference compound] | 1.15 ± 0.5 µM |  | 1.73 ± 0.4 µM | 1.33 ± 0.9 µM | + | +/− | + | 0.97 ± 0.1 µM | 1.09 ± 0.1 µM | able to block the hTopo I activity | totally block | + | able to block the hTopo I activity

Second part, led by results:

IC50 [2] | melting point | IC50 [3] | IC50 (A2058 melanoma cells) | Topoisomerase Inhibition hTopo I (hTopo I; 10 µM) | Topoisomerase Inhibition hTopo II (hTopo II; 10 µM) | Topoisomerase Inhibition hTopo II (hTopo II; 50 µM) | Compound | IC50 [1] | IC50 [4] | hTopo I activity inhibition (in words) (hTopo I; 10 µM, 1 h, 37 °C) | hTopo II activity inhibition (in words) (hTopo II; 50 µM) | Topoisomerase Inhibition hTopo I (hTopo I; 50 µM) | hTopo I activity inhibition (in words) (hTopo I; 50 µM)
> 100 µM | 245 to 247 °C | 27.5 ± 0.9 µM | > 100 µM |  |  |  | COc1cc(/C=C2\SC(=O)N(CC(=O)Nc3nccs3)C2=O)cc(OC)c1OC [compound 7a, (Z)-2-(5-(3,4,5-Trimethoxybenzylidene)thiazolidin-2,4-dion-3-yl)-N-(thiazol-2-yl)acetamide] | 89.2 ± 1.1 µM | > 100 µM |  |  |  | 
19.5 ± 0.6 µM |  | 32.8 ± 0.6 µM | 4.8 ± 1 µM | − | − | + | COc1cc(/C=C2\SC(=O)N(CC(=O)Nc3nc(-c4ccc(C)cc4)cs3)C2=O)cc(OC)c1OC [compound 7c, (Z)-2-(5-(3,4,5-Trimethoxybenzylidene)thiazolidin-2,4-dion-3-yl)-N-(4-(4-methylphenyl)thiazol-2-yl)acetamide] | > 100 µM | 46.4 ± 1.1 µM | not able to inhibit the relaxation activity |  |  | 

Reference: publication PMC10384675, “Novel Thiazolidine-2,4-dione-trimethoxybenzene-thiazole Hybrids as Human Topoisomerases Inhibitors” (Pharmaceuticals, 2023)
